Measured values from article PMC11641184, “Coumarin Derivative Hybrids: Novel Dual Inhibitors Targeting Acetylcholinesterase and Monoamine Oxidases for Alzheimer’s Therapy” (International Journal of Molecular Sciences, 2024).

Legend:
[1] = system: hAChE; set-up: method as in PMID 10213168; conditions: read-out: hAChE IC50 in vitro; cited from earlier work
[2] = target: T1, hMAO-B (Homo sapiens, UniProt P27338); assay: biochemical; conditions: human recombinant MAO-B; for inhibition at 10 µM: read-out: hMAO-B % inhibition at 10 μM ± SD, 10 μM inhibitor, n = 3; for IC50: kynuramine, 37 °C, pH 7.4, n = 3, read-out: hMAO-B IC50 ± SEM
T1 construct: purchased Aldrich (Milan, Italy)
T1 sequence (P27338 1-520): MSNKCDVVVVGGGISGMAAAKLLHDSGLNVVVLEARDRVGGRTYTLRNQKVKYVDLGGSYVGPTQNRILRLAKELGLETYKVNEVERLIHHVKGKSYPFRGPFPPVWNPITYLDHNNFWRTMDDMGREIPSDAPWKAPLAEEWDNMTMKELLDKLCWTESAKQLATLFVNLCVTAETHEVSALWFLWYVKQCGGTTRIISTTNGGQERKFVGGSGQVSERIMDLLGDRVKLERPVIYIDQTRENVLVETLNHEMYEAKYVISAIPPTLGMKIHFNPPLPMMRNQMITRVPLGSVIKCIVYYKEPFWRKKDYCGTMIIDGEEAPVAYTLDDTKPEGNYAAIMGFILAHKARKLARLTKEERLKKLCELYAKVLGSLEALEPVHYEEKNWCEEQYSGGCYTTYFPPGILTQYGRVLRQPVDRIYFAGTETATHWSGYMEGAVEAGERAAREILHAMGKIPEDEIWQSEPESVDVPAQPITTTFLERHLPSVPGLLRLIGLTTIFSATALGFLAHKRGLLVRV
Procedure: (§1) All enzymes and chemicals were purchased from Aldrich (Milan, Italy). Inhibition assays were performed in 96-well plates (Greiner Bio-One GmbH, Frickenhausen, Germany) using an Infinite M1000 plate reader (Tecan, Milan, Italy). Incubations were performed in triplicate, and final inhibition values were determined as mean ± SEM (n = 3).
(§2) Incubations were set at 37 °C in phosphate buffer with a pH of 7.4 for 20 min before the addition of enzyme, and the fluorescence was measured after additional incubation of 30 min.

[3] = target: T2, hMAO-A (Homo sapiens, UniProt P21397); assay: biochemical; conditions: read-out: hMAO-A % inhibition at 10 μM ± SD; 10 μM inhibitor, human recombinant MAO-A, n = 3
T2 construct: purchased Aldrich (Milan, Italy)
T2 sequence (P21397 1-527): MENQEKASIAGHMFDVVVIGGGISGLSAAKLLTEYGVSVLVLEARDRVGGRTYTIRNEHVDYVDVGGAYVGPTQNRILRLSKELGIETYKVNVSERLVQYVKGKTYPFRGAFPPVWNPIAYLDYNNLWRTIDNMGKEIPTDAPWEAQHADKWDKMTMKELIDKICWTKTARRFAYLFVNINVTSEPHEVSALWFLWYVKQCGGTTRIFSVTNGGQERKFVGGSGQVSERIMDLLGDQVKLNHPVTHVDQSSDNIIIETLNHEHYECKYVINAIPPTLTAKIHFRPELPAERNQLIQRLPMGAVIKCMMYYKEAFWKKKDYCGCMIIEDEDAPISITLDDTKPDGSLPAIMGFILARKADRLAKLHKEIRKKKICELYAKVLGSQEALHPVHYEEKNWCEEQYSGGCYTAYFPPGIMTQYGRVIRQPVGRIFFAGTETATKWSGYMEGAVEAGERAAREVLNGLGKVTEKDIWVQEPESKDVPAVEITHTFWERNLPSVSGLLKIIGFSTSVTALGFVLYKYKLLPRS
Procedure: as §1, §2

[4] = target: T3, human recombinant AChE (Homo sapiens, UniProt P22303); assay: biochemical; conditions: for inhibition at 10 µM: read-out: hAChE % inhibition at 10 μM ± SD, 10 μM inhibitor, human recombinant AChE, n = 3
T3 construct: purchased Aldrich (Milan, Italy)
T3 sequence (P22303 32-614): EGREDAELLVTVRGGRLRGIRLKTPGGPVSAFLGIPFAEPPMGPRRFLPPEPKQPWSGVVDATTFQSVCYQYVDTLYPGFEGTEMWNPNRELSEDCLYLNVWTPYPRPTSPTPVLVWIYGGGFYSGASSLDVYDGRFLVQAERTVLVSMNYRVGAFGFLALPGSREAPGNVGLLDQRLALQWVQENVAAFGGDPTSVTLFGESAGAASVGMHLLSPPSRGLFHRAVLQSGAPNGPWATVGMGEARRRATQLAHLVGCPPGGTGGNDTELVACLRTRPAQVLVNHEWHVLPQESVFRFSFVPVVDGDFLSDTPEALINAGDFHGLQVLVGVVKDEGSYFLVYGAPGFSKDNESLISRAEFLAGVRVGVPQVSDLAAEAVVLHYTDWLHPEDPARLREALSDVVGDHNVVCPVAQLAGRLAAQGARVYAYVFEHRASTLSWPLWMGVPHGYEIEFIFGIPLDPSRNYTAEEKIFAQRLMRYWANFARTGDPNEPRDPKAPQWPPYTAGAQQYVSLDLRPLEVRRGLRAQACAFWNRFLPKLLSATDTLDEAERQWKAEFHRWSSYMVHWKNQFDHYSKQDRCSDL
Procedure: as §1
The inhibition of human recombinant AChE was determined as already reported by applying Ellman’s spectrophotometric method.

[5] = in silico and in vitro studies; cited from earlier work

Structure (SMILES) | IC50 [1] [µM] | inhibition at 10 µM [2] [%] | inhibition at 10 µM [3] [%] | inhibition at 10 µM [4] [%] | IC50 [2] [µM] | pharmacokinetic properties [5] | IC50 [4] [µM]
COc1cc2oc(=O)c(C)c(C)c2cc1OCCCN1CCN(c2ccccc2OC)CC1 [Ensaculin] | 0.36 | – | – | – | – | – | –
COc1ccccc1N1CCN(CCCOc2c(C(C)=O)c(C)cc3oc(=O)cc(C)c23)CC1 [Compound 5, 6-acetyl-4,7-dimethyl-5-[3-(4-(2-methoxyphenyl)piperazin-1-yl)propoxy]coumarin] | – | 34 ± 2 | 22 ± 3 | 50 ± 6 | – | – | –
COc1ccccc1N1CCN(CCCCOc2cc(C)cc3oc(=O)cc(C)c23)CC1 [Compound 2, 4,7-dimethyl-5-[4-(4-(2-methoxyphenyl)piperazin-1-yl)butoxy]coumarin] | – | 33 ± 2 | 19 ± 1 | 61 ± 4 | – | – | –
COc1cccc(N2CCN(CCCOc3cc(C)cc4oc(=O)cc(C)c34)CC2)c1 [Compound 3, 4,7-dimethyl-5-[3-(4-(3-methoxyphenyl)piperazin-1-yl)propoxy]coumarin] | – | – | 39 ± 5 | 53 ± 2 | 1.88 ± 0.45 | excellent pharmacokinetic properties | –
COc1ccccc1N1CCN(CCCCOc2ccc3c(C)cc(=O)oc3c2C(C)=O)CC1 [Compound 10, 8-acetyl-7-{4-[4-(2-methoxyphenyl)piperazin-1-yl]butoxy}-4-methylchromen-2-one] | – | 24 ± 1 | 52 ± 4 | – | – | excellent pharmacokinetic properties | 1.52 ± 0.66
COc1cccc(N2CCN(CCCCOc3c(C(C)=O)c(C)cc4oc(=O)cc(C)c34)CC2)c1 [Compound 8, 6-acetyl-4,7-dimethyl-5-[4-(4-(3-methoxyphenyl)piperazin-1-yl)butoxy]coumarin] | – | 26 ± 2 | 55 ± 2 | 54 ± 8 | – | – | –
COc1cccc(N2CCN(CCCCOc3cc(C)cc4oc(=O)cc(C)c34)CC2)c1 [Compound 4, 4,7-dimethyl-5-[4-(4-(3-methoxyphenyl)piperazin-1-yl)butoxy]coumarin] | – | – | 38 ± 4 | 56 ± 1 | 3.18 ± 0.63 | – | –
COc1cccc(N2CCN(CCCOc3c(C(C)=O)c(C)cc4oc(=O)cc(C)c34)CC2)c1 [Compound 7, 6-acetyl-4,7-dimethyl-5-[3-(4-(3-methoxyphenyl)piperazin-1-yl)propoxy]coumarin] | – | 35 ± 3 | 39 ± 3 | 46 ± 3 | – | – | –
COc1ccccc1N1CCN(CCCOc2ccc3c(C)cc(=O)oc3c2C(C)=O)CC1 [Compound 9, 8-acetyl-7-{3-[4-(2-methoxyphenyl)piperazin-1-yl]propoxy}-4-methylchromen-2-one] | – | – | 32 ± 4 | 59 ± 7 | 4.76 ± 0.34 | – | –
COc1ccccc1N1CCN(CCCOc2cc(C)cc3oc(=O)cc(C)c23)CC1 [Compound 1, 4,7-dimethyl-5-{3-[4-(2-methoxyphenyl)piperazin-1-yl]propoxy}coumarin] | – | – | 44 ± 4 | 61 ± 1 | 2.18 ± 0.48 | – | –
COc1ccccc1N1CCN(CCCCOc2c(C(C)=O)c(C)cc3oc(=O)cc(C)c23)CC1 [Compound 6, 6-acetyl-4,7-dimethyl-5-[4-(4-(2-methoxyphenyl)piperazin-1-yl)butoxy]coumarin] | – | 43 ± 3 | 30 ± 5 | 48 ± 1 | – | – | –
